Data taken from US20240299542A1, “NATURAL KILLER CELLS ENGINEERED TO REDUCE OR ELIMINATE CBL-B AND USES THEREOF” (City of Hope, priority 2021, published 2024).

What was measured:
[1] = test system: Cbl-b; experiment: Cbl-b protein by immunoblot after stimulation of primary human NK cells with cytokines or activating antibody; type: cell-based; details: primary human NK cells, 24 h cytokine stimulation, compared to resting NK cells without cytokines
Procedure: (FIG. 1B) Enriched primary human NK cells were co-cultured with the K562 myeloid leukemia cell line (E/T ratio=10:1) for 24 h followed by immunoblot analysis. Summary data are from three independent experiments. (FIG. 1C) Primary human NK cells were treated with different concentrations of IL-15 for 24 h followed by immunoblot analysis (n=5 donors). (FIG. 1D) Equal numbers of purified CD56^+ human NK cells, CD56^bright NK cells and CD56^dim NK cells were sorted from peripheral blood mononuclear cells isolated by Ficoll, cultured and stimulated with IL-15 (20 ng/ml for 24 h) followed by immunoblot analysis. The data are representative of three independent experiments. Med, medium only; *P<0.05, **P<0.01 by two-tailed unpaired t-test or One-way ANOVA; ns, not significant. Data are presented as mean±SEM.
FIG. 6A Enriched primary human NK cells were cocultured with Molm-13 or MV4-11 leukemia cell lines (E/T ratio=10:1) for 24 h prior to assessment of Cbl-b by immunoblot analysis. […] FIG. 6B Enriched primary human NK cells were cultured overnight with an anti-NKG2D activating antibody (clone 1D11) (10 μg/ml) or mouse IgG (10 μg/ml) as control prior to assessment of Cbl-b by immunoblot analysis. […] Data are shown summarizes four independent experiments. […] Data are shown summarizes five independent experiments. FIG. 6E The expression of Cbl-b was assessed by qRT-PCR after primary human NK cells were incubated with K562 cells (E/T ratio=10:1) for 24 h. Data are shown summarizes five independent experiments. *P<0.05, **P<0.01, compared to the shortest time point. Data are presented as mean±SEM.
(§1) Immunoblotting. Cells were harvested and suspended in RIPA lysis buffer (Thermo Fisher Scientific) on ice for 20 minutes. Equal amount of protein was resolved by 5-15% Criterion TGX gel (Bio-Rad) and then transferred onto a Nitrocellulose (NC) or PVDF membrane (Thermo Fisher Scientific). The membrane was incubated with a primary antibody at 4° C. overnight and an IRDye secondary antibody (Li-COR Biosciences) for 1 hour at room temperature. The immunoblots were visualized with Odyssey CLx Imager (Li-COR Biosciences). Densitometric analysis was performed to quantify intensity of gel bands with Image J (National Institutes of Health).
We assessed the expression of Cbl-b protein in primary human NK cells enriched from the blood of healthy donors in response to 24-hour stimulation by different cytokines. […] Since certain tumor cells can trigger NK cell activation, we co-cultured NK cells for 24 h with different tumor cell lines in order to assess this effect on the expression of Cbl-b.

[2] = test system: Cbl-b; experiment: Cbl-b protein by immunoblot after inhibitor pretreatment and K562 co-culture of primary NK cells; type: cell-based, human; details: 10 uM, 90 min pretreatment, 24 h co-culture with K562 (E/T=10:1), vs vehicle control
Procedure: FIG. 7A Primary NK cells were pretreated with AZD1480 (10 uM), CP-690550 (10 uM) or Afuresertib (10 uM) for 90 min prior to a 24 h cocultured with K562 cells (E/T=10:1). The immunoblot data are representative of 3 donors in a similar fashion. Densitometric quantification assessing the ratio of Cbl-b protein levels to β-actin protein levels for 3 donors is summarized in FIG. 7B. *P<0.05, **P<0.01; ns, not significant. Data are presented as mean±SEM.
as §1
(§2) Since IL-15 utilizes select JAK-STAT proteins to initiate cellular activation, we pretreated primary NK cells with the JAK3 inhibitor CP-690550 (22) or the JAK1/2 inhibitor AZD1480 (23) in increasing concentrations prior to IL-15 stimulation then Cbl-b expression level was evaluated. […] As K562 cells were also able to induce expression of Cbl-b in primary human NK cells (FIG. 1B), we repeated the inhibitor experiments under the K562 cell stimulation.

[3] = test system: Cbl-b; experiment: Cbl-b protein by immunoblot after JAK or AKT inhibitor pretreatment and IL-15/IL-2 activation of primary NK cells; type: cell-based, human
Procedure: FIGS. 2A-2E depict the results of a study showing that JAK-STAT and AKT pathways mediate upregulation of Cbl-b in NK cells. (FIG. 2A) Primary human NK cells were pretreated with the JAK3 inhibitor CP-690550 and the JAK1/2 inhibitor AZD1480 at various concentrations for 90 min prior to a 24 h activation by IL15 (10 ng/ml). NK cells were then harvested for quantification of Cbl-b protein expression by immunoblot analysis. Data are representative of 6 donors performed in a similar fashion. Densitometric quantification assessing the ratio of the Cbl-b protein to β-actin protein levels for 6 donors is summarized in (FIG. 2B) and (FIG. 2C). […] Data are representative of 5 donors performed in a similar fashion. Densitometric quantification assessing the ratio of the Cbl-b protein levels to β-actin protein levels for 5 donors is summarized in (FIG. 2E). *P<0.05, **P<0.01, ***P<0.001 by One-way ANOVA or Student's two-tailed paired t-test. Data are presented as mean±SEM.
as §1, §2

[4] = test system: IFN-γ; experiment: Intracellular IFN-γ flow cytometry of siRNA-transduced NK cells; type: cell-based, human; details: IL-15 (10 ng/ml) 24 h, n=5 donors
Procedure: (§3) FIGS. 4A-4D depict the results of a study showing that downregulation of Cbl-b increases IFN-γ secretion in IL-15-activated primary human NK cells. (FIG. 4A) RNAseq was conducted using primary human NK cells transduced with either Cbl-b siRNA or Scr siRNA without or with incubation in IL-15 (10 ng/ml) for 16 h (4 donors for each group). […] (FIG. 4B) qRT-PCR was performed to quantify the mRNA levels of IFN-γ (n=6 donors) after IL-15 (10 ng/ml) 6 h stimulation. (FIG. 4C) The percentage of intracellular IFN-γ+ cells in un-transduced NK cells or those transduced with Cbl-b siRNA or Scr siRNA, each activated with IL-15 (10 ng/ml) for 24 h (11.5% vs 4.338%; P=0.0008; n=5 donors). (FIG. 4D) Supernatants were collected after IL-15 (10 ng/ml) for 24 h and IFN-γ concentrations measured by ELISA (18115 pg/ml vs 882.5 pg/ml; P=0.0099; n=7 donors). Scr-scrambled; *P<0.05, **P<0.01, ***P<0.001 by Student's two-tailed paired t-test or One-way ANOVA; ns, not significant. Data presented as mean±SEM.
FIGS. 9B-9D show intracellular flow cytometric analysis of CD56+ primary human NK cells transduced with Scr siRNA or transduced with Cbl-b siRNA, incubated with IL-18 (10 ng/ml), IL-12 (10 ng/ml) or IL-18 (10 ng/ml) plus IL-12 (10 ng/ml) for 24 h. Scr, scrambled; *P<0.05, ns, not significant. Data are presented as mean±SEM.
Flow cytometry. To determine protein cell surface expression via flow cytometry, cells were stained with monoclonal antibodies at room temperature for 20 minutes and washed with FACS buffer prior to analysis using a Fortessa X-20 flow cytometer (BD Biosciences). For IFN-γ intracellular flow cytometric analysis, […] GolgiPlug (BD Biosciences) was added for 4 h before cell harvest; cells were then permeabilized and fixed using a Cytofix/Cytoperm Fixation/Permeabilization Solution Kit (BD Biosciences), followed by analysis with a Fortessa X-20 flow cytometer. Intracellular flow cytometric analysis of Mertk was performed similarly except that GolgiPlug was not added. Data was analyzed by using Flowjo V10 software (Tree Star, Ashland, OR, USA).
(§4) To further explore how Cbl-b regulates the functions of primary human NK cells, we performed RNA-seq analyses using enriched primary NK cells from healthy donors transduced with Cbl-b siRNA or Scr siRNA without or with IL-15 treatment for 16 h (n=4 in each group). […] The intracellular results were supported by assessment IFN-γ secretion into the supernatant, in that IL-15-activated primary human NK cells transduced with Cbl-b siRNA expressed 10-fold higher levels of IFN-γ compared to NK cells transduced with Scr siRNA (FIG. 4D).

[5] = test system: IFN-γ; experiment: IFN-γ in supernatants by ELISA; type: cell-based, human; details: IL-15 (10 ng/ml) 24 h, n=7 donors
Procedure: as §3
(§5) ELISA. Primary NK cells were plated in an equivalent number of 100,000 cells/well in a 96-well plate in RPMI and supplemented with 10% FBS. Cells were treated with recombinant human IL-15 (10 ng/ml) for 24 h, and cell-free culture supernatant was collected and frozen at −80° C. for later use. IFN-γ concentration was measured by ELISA using anti-IFN-γ antibody from Thermo Fisher Scientific. Granzyme B concentration was measured by ELISA kit purchased from R&D.
as §4

[6] = test system: granzyme B; experiment: Granzyme B protein in supernatants by ELISA; type: cell-based, human
Procedure: FIGS. 3A-3E depict the results of a study showing that downregulation of Cbl-b enhances the cytotoxicity of primary human NK cells. (FIGS. 3A and 3B) Primary human NK cells transduced with Cbl-b siRNA or Scr siRNA for 24 h were stimulated without (FIG. 3A) or with (FIG. 3B) a low concentration of IL-15 (2 ng/ml) for 16 h, then co-cultured with ^51Cr labeled Molm-13, MV4-11 or EOL-1 leukemia cell lines for 4 h, followed by quantification of specific tumor cell lysis. Each experiment was repeated with 6 different normal donors. (FIG. 3C) qRT-PCR was performed to quantify the granzyme B (GZMB) mRNA levels (n=8 donors) in siRNA- and Scr siRNA-transduced primary human NK cells incubated without or with IL-15 (10 ng/ml) for 16 h. (FIG. 3D) The concentration of the granzyme B protein in the supernatants of Cbl-b siRNA- and Scr siRNA-transduced primary human NK cells incubated without (688.1 pg/ml vs 525.4 pg/ml; P=0.0232) or with IL-15 (10 ng/ml) for 24 h (8789 pg/ml vs 3397 pg/ml; P=0.0232) was measured by ELISA (n=8 donors). (FIG. 3E) The level of granzyme B protein in Cbl-b siRNA- and Scr siRNA-transduced primary human NK cells incubated without or with IL-15 (10 ng/ml) for 24 h was measured by immunoblot analysis. The data are representative of three experiments. Scr-scrambled; *P<0.05, **P<0.01, ***P<0.001, ****P<0.0001 by One-way or Two-way ANOVA; ns, not significant. Data presented as mean±SEM.
as §5
Both groups were next incubated without or with IL-15 and co-cultured with ^51Cr labeled MV4-11, Molm-13, or EOL-1 leukemia cell lines, followed by assessment of specific lysis measured after 4 h of co-culture.

IL-21: Recombinant human IL-21 purchased from Miltenyi Biotec
expression of Cbl-b protein (ratio to β-actin) [1]: no significant change

Cn1ncc(Cl)c1-c1cc(C(=O)N[C@H](CN)Cc2cccc(F)c2)sc1Cl [Afuresertib]
Cbl-b expression after inhibitor pretreatment under K562 stimulation [2]: significant downregulation | expression of Cbl-b protein after inhibitor pretreatment ([3]; 10 uM, 90 min pretreatment, then IL-15 (10 ng/ml) or IL-2 (150 IU/ml) 24 h): nearly identical results

IL-18: Recombinant human IL-18 purchased from Miltenyi Biotec
expression of Cbl-b protein (ratio to β-actin) [1]: no significant change

Cc1cc(Nc2nc(N[C@@H](C)c3ncc(F)cn3)ncc2Cl)n[nH]1 [AZD1480]
Cbl-b expression after inhibitor pretreatment under K562 stimulation [2]: only the AKT1/2/3 inhibitor Afuresertib rather than either of the two JAK inhibitors | expression of Cbl-b protein after inhibitor pretreatment ([3]; 90 min pretreatment at various concentrations, then IL-15 (10 ng/ml) 24 h, vs vehicle control): significant decrease

Scr siRNA: scrambled Accell siRNA control, SEQ ID NO:2, UGGUUUACAUGUUGUGUGA (Accell modifications, chemistry not fully specified) [reference compound]
percentage of intracellular IFN-γ+ cells [4]: 4.338% | IFN-γ concentration in supernatants [5]: 882.5 pg/mL | concentration of granzyme B protein in supernatants ([6]; with IL-15 (10 ng/ml) 24 h, n=8 donors): 3397 pg/mL | concentration of granzyme B protein in supernatants ([6]; without IL-15, n=8 donors): 525.4 pg/mL

B1: IL-7: Recombinant human IL-7 purchased from Miltenyi Biotec (protein, UniProt P13232 26-177, looked up)
Interleukin-7: DCDIEGKDGKQYESVLMVSIDQLLDSMKEIGSNCLNNEFNFFKRHICDANKEGMFLFRAARKLRQFLKMNSTGDFDLHLLKVSEGTTILLNCTGQVKGRKPAALGEAQPTKSLEENKSLKEQKKLNDLCFLKRLLQEIKTCWNKILMGTKEH
expression of Cbl-b protein (ratio to β-actin) [1]: no significant change

B2: IL-12: Recombinant human IL-12 purchased from Miltenyi Biotec (protein, UniProt P29459 23-219; P29460 23-328, looked up)
Interleukin-12 subunit alpha: RNLPVATPDPGMFPCLHHSQNLLRAVSNMLQKARQTLEFYPCTSEEIDHEDITKDKTSTVEACLPLELTKNESCLNSRETSFITNGSCLASRKTSFMMALCLSSIYEDLKMYQVEFKTMNAKLLMDPKRQIFLDQNMLAVIDELMQALNFNSETVPQKSSLEEPDFYKTKIKLCILLHAFRIRAVTIDRVMSYLNAS
Interleukin-12 subunit beta: IWELKKDVYVVELDWYPDAPGEMVVLTCDTPEEDGITWTLDQSSEVLGSGKTLTIQVKEFGDAGQYTCHKGGEVLSHSLLLLHKKEDGIWSTDILKDQKEPKNKTFLRCEAKNYSGRFTCWWLTTISTDLTFSVKSSRGSSDPQGVTCGAATLSAERVRGDNKEYEYSVECQEDSACPAAEESLPIEVMVDAVHKLKYENYTSSFFIRDIIKPDPPKNLQLKPLKNSRQVEVSWEYPDTWSTPHSYFSLTFCVQVQGKSKREKKDRVFTDKTSATVICRKNASISVRAQDRYYSSSWSEWASVPCS
expression of Cbl-b protein (ratio to β-actin) [1]: no significant change
